# Read-outs that look alike come from different tables or passages of the source.
# Test system: α7 integrin promoter
# Assay: muscle cell-based assay: α7βgal+/− myoblasts/myotubes, LacZ reporter, β-galactosidase cleavage of FDG
# Set-up: species or system mouse; Results in α7+/− β-galactosidase assay: scale not given here
# Conditions: for AC50 / EC50: Mus musculus; for AC50: log of AC50, given with negative sign, unit of AC50 not given, read-out: Fit Log AC50 (converted); for Fit Curve Class: key not given; for Results in α7+/− β-galactosidase assay: Myoblasts
# Method in brief: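 Fluorescein generated from FDG by β-galactosidase reports α7 integrin promoter activity in differentiated myoblasts from α7+/− LacZ knock-in pups. Screening hits then went to dose-response, western blotting and a myostatin counterscreen.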
# [1] = Table 12, fitted activity at zero concentration
# [2] = Table 12 Compound data, concentration-response curve fit
# [3] = given as log AC50 (negative values), read-out: Fit LogAC50 (converted)
# [4] = curve fit, activity at zero concentration
compound,measurement,setting,value
COc1cc(CNCc2ccc(C(=O)O)cc2)ccc1OCc1ccc(F)cc1.Cl [Compound 57],AC50,Table 12,4.47 µM
same,Fit HillSlope,"Table 12, curve fit",1.7529
same,Fit Zero Activity [%],[1],−0.5596%
same,Fit Curve Class,Table 12,2.1
same,Score,[2],45
O=C(Nc1ccccc1Cl)C1CCCN1C(=O)OCc1ccccc1 (centres unmarked),"Results in a α7+/− β-galactosidase assay, Myotubes, 0.5 uM",,−0.04746
same,"Results in a α7+/− β-galactosidase assay, Myotubes, 1 uM",,−0.07012
same,"Results in a α7+/− β-galactosidase assay, Myotubes, 5 uM",,−0.00214
same,"Results in a α7+/− β-galactosidase assay, Myotubes, 10 uM",,−0.05774
same,"Results in a α7+/− β-galactosidase assay, Myotubes, 20 uM",,−0.1932
same,"Results in a α7+/− β-galactosidase assay, Myotubes, 40 uM",,−0.2694
COc1ccc(OC)c(NC(=O)CN2CCC(NC(=O)c3ccccc3C)CC2)c1 [drawing 366],"Results in a α7+/− β-galactosidase assay, Myotubes, 0.5 uM","Myotubes, compound at 0.5 uM",0.003237
same,"Results in a α7+/− β-galactosidase assay, Myotubes, 1 uM","Myotubes, compound at 1 uM",0.04584
same,"Results in a α7+/− β-galactosidase assay, Myotubes, 5 uM","Myotubes, compound at 5 uM",−0.09583
same,"Results in a α7+/− β-galactosidase assay, Myotubes, 10 uM","Myotubes, compound at 10 uM",−0.1153
same,"Results in a α7+/− β-galactosidase assay, Myotubes, 20 uM","Myotubes, compound at 20 uM",−0.1579
same,"Results in a α7+/− β-galactosidase assay, Myotubes, 40 uM","Myotubes, compound at 40 uM",−0.08927
CCOc1ccc2nc(Cl)sc2c1 [drawing 578],Results in α7+/− β-galactosidase assay,0.5 uM,−0.06751
same,Results in α7+/− β-galactosidase assay,1 uM,0.05388
same,Results in α7+/− β-galactosidase assay,5 uM,0.04367
same,Results in α7+/− β-galactosidase assay,10 uM,−0.03134
same,Results in α7+/− β-galactosidase assay,20 uM,0.1725
same,Results in α7+/− β-galactosidase assay,40 uM,0.1336
CC1(C)Cc2c(cnn2-c2cccc(F)c2)C(NC(=O)CCc2cnccn2)C1 (centres unmarked) [Compound 154],EC50,[3],3.16 µM
same,Score,Table 12 compound data,42
same,Fit Curve Class,curve class number,2.1
same,Fit HillSlope,curve fit,0.9
same,Fit Zero Activity [%],[4],−46.353%
CCCS(=O)(=O)N1CCCC(C(=O)c2cccc(Cl)c2)C1 (centres unmarked) [Compound 84],AC50,Table 12,6.31 µM
same,Fit HillSlope,"Table 12, curve fit",1.2221
same,Fit Zero Activity [%],[1],−7.9639%
same,Fit Curve Class,Table 12,2.1
same,Score,[2],44
O=C1Nc2ccccc2/C1=C/c1ccccc1F [drawing 591],Results in α7+/− β-galactosidase assay,0.5 uM,−0.0677
same,Results in α7+/− β-galactosidase assay,1 uM,−0.05193
same,Results in α7+/− β-galactosidase assay,5 uM,0.009111
same,Results in α7+/− β-galactosidase assay,10 uM,0.1004
same,Results in α7+/− β-galactosidase assay,20 uM,−0.4184
same,Results in α7+/− β-galactosidase assay,40 uM,−0.7444
Cc1cccc(NC(=O)CN(C)C(=O)c2ccc(-c3ccc(Cl)cc3)o2)c1 [drawing 643],Results in α7+/− β-galactosidase assay,0.5 uM,−0.0624
same,Results in α7+/− β-galactosidase assay,1 uM,−0.00739
same,Results in α7+/− β-galactosidase assay,5 uM,−0.04166
same,Results in α7+/− β-galactosidase assay,10 uM,−0.109
same,Results in α7+/− β-galactosidase assay,20 uM,0.6807
same,Results in α7+/− β-galactosidase assay,40 uM,−0.2589
"CC(=O)N(O)CCCCCNC(=O)CCC(=O)N(O)CCCCCNC(=O)CCC(=O)N(O)CCCCCN [Deferoxamine, deferoxamine, reference compound]",EC50,"Myotube, α7βgal+/− myotubes, dose-response, read-out: EC50",10 µM
same,EC50,"enhancement of α7 integrin expression in muscle cells, read-out: EC50",10 µM
same,Optimal Concentration,enhancement of α7 integrin expression in muscle cells,20 μm
CN1C(=O)/C(=C(/C#N)c2nc3ccccc3[nH]2)c2ccccc21 [drawing 384],"Results in a α7+/− β-galactosidase assay, Myotubes, 0.5 uM","Myotubes, compound at 0.5 uM",−0.07617
same,"Results in a α7+/− β-galactosidase assay, Myotubes, 1 uM","Myotubes, compound at 1 uM",−0.02413
same,"Results in a α7+/− β-galactosidase assay, Myotubes, 5 uM","Myotubes, compound at 5 uM",−0.1571
same,"Results in a α7+/− β-galactosidase assay, Myotubes, 10 uM","Myotubes, compound at 10 uM",0.1257
same,"Results in a α7+/− β-galactosidase assay, Myotubes, 20 uM","Myotubes, compound at 20 uM",−0.2111
same,"Results in a α7+/− β-galactosidase assay, Myotubes, 40 uM","Myotubes, compound at 40 uM",−0.2699
CCCCN(CC)Cc1ccc(C/N=C(\S)Nc2ccccc2F)o1 [drawing 313],"Results in a α7+/− β-galactosidase assay, Myotubes, 0.5 uM","Myotubes, compound at 0.5 uM",0.05863
same,"Results in a α7+/− β-galactosidase assay, Myotubes, 1 uM","Myotubes, compound at 1 uM",0.01354
same,"Results in a α7+/− β-galactosidase assay, Myotubes, 5 uM","Myotubes, compound at 5 uM",−0.01977
same,"Results in a α7+/− β-galactosidase assay, Myotubes, 10 uM","Myotubes, compound at 10 uM",0.01526
same,"Results in a α7+/− β-galactosidase assay, Myotubes, 20 uM","Myotubes, compound at 20 uM",−0.2661
same,"Results in a α7+/− β-galactosidase assay, Myotubes, 40 uM","Myotubes, compound at 40 uM",−0.1331
CNC(=O)/C(=C\c1cccc(Oc2ccccc2)c1)NC(=O)c1ccccc1 [Compound 211],EC50,[3],11.2 µM
same,Score,Table 12 compound data,42
same,Fit Curve Class,curve class number,2.1
same,Fit HillSlope,curve fit,1.1341
same,Fit Zero Activity [%],[4],−0.265%
